# Experiments:
# in vitro = settings: human, Caco-2
# Mus musculus = test: Upregulation of plasma EPO level in Balb/c mouse at 10 mg/kg, po administered as single dose measured after 8 hrs by ELISA; format: functional
# [1] = Metabolic stability in Beagle dog liver microsomes assessed as compound remaining at 10 uM after 120 mins in presence of NADPH by Radio-HPLC analysis; format: ADME, Canis lupus familiaris, microsome; settings: read-out: Stability
# [2] = Solubility of the compound in FeSSIF after 4 hrs by LC-MS analysis; format: physicochemical
# [3] = MRT in CD(SD) rat at 0.3 mg/kg, iv; format: ADME, organism-based; settings: in vivo
# [4] = Metabolic stability in cynomolgus monkey liver microsomes assessed as compound remaining at 10 uM after 120 mins in presence of NADPH by Radio-HPLC analysis; format: ADME, Macaca fascicularis, microsome; settings: read-out: Stability
# Cytochrome P450 2A6 = molecular target: T1, Cytochrome P450 2A6 (Homo sapiens, UniProt P11509); test: Inhibition of CYP2A6 in human liver microsomes by LC-MS/MS analysis; format: ADME
# T1 sequence (P11509 whole entry): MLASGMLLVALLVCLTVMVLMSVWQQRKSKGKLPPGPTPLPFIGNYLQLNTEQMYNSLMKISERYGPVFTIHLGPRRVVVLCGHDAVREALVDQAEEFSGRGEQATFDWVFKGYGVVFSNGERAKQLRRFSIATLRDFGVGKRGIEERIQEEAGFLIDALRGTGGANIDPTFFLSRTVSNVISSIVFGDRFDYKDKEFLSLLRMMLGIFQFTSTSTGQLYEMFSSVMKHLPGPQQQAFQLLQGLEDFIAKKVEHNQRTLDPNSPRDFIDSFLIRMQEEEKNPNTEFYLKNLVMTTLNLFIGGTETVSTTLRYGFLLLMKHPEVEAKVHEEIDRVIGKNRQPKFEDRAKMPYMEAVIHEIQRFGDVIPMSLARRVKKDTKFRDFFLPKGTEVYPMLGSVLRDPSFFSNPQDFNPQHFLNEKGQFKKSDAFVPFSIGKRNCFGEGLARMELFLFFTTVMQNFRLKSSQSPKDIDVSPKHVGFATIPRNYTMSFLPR
# Cytochrome P450 3A4 = Cytochrome P450 3A4 (Homo sapiens, UniProt P08684); test: Inhibition of CYP3A4 in human liver microsomes using midozolam as substrate by LC-MS/MS analysis; format: ADME
# Chain of Cytochrome P450 3A4 (P08684 whole entry): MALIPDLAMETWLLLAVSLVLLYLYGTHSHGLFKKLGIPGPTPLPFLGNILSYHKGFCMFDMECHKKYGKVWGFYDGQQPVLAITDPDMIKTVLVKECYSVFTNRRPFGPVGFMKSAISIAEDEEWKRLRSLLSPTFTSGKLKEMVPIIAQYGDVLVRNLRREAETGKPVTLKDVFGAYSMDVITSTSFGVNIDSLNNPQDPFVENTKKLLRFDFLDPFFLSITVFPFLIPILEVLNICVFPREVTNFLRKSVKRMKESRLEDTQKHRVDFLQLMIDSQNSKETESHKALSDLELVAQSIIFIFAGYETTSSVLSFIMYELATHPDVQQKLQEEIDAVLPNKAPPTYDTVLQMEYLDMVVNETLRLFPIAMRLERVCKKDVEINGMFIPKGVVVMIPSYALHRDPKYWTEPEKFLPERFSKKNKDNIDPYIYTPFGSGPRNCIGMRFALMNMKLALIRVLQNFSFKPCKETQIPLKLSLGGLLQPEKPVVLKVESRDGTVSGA
# [5] = Cmax in CD(SD) rat at 1 mg/kg, po; format: ADME, organism-based; set-up: dose 1 mg/kg, route oral; settings: in vivo
# [6] = Metabolic stability in Sprague-Dawley rat liver microsomes assessed as compound remaining at 10 uM after 120 mins in presence of NADPH by Radio-HPLC analysis; format: ADME, microsome; settings: read-out: Stability
# Cytochrome P450 1A2 = molecular target: T2, Cytochrome P450 1A2 (Homo sapiens, UniProt P05177); test: Inhibition of CYP1A2 in human liver microsomes by LC-MS/MS analysis; format: ADME
# T2 sequence (P05177 whole entry): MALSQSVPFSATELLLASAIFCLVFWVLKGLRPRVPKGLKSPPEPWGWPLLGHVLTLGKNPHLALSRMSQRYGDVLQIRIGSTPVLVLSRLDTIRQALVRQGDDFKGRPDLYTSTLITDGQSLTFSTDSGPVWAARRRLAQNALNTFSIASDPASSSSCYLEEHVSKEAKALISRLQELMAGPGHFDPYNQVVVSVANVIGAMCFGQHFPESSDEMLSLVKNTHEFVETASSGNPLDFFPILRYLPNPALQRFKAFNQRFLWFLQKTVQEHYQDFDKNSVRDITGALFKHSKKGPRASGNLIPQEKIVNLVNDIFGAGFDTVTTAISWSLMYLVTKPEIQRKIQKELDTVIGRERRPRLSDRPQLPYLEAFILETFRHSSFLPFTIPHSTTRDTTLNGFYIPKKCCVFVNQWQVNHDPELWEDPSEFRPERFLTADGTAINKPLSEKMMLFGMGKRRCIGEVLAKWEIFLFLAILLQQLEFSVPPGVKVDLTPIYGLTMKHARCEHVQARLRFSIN
# Cytochrome P450 2C19 = Cytochrome P450 2C19 (Homo sapiens, UniProt P33261); test: Inhibition of CYP2C19 in human liver microsomes by LC-MS/MS analysis; format: ADME
# Chain of Cytochrome P450 2C19 (P33261 whole entry): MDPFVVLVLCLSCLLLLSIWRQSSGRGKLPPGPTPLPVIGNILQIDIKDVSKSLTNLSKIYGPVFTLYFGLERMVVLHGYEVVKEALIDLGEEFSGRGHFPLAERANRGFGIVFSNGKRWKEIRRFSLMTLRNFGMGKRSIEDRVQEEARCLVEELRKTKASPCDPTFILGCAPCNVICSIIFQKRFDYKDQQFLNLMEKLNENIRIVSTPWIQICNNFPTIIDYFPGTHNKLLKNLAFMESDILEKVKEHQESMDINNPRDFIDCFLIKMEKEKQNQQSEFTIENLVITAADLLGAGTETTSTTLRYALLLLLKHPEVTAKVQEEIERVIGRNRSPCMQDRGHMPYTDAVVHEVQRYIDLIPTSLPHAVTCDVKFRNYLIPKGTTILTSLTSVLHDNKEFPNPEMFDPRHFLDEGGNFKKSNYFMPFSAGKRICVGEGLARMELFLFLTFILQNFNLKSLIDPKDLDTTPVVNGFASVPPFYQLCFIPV
# Cytochrome P450 2C8 = molecular target: T3, Cytochrome P450 2C8 (Homo sapiens, UniProt P10632); test: Inhibition of CYP2C8 in human liver microsomes by LC-MS/MS analysis; format: ADME
# T3 sequence (P10632 whole entry): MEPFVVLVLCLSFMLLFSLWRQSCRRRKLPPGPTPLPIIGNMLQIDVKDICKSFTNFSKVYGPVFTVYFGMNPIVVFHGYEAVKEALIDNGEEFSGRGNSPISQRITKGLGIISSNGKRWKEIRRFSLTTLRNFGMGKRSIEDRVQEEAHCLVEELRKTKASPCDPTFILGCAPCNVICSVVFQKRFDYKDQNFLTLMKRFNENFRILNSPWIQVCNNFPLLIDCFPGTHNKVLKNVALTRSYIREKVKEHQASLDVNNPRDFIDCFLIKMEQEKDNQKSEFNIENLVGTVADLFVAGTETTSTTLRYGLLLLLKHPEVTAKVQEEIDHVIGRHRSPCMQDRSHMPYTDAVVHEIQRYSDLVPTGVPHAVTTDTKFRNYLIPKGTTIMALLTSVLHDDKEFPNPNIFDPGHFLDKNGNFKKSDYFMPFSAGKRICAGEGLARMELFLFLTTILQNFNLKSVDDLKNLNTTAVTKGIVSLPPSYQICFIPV
# [7] = Solubility of the compound in FaSSIF after 4 hrs by LC-MS analysis; format: physicochemical
# Rattus norvegicus [8] = test: Antianemic activity in po dosed CD(SD) rat assessed as increase in hemoglobin levels administered once daily for 28 days; format: functional, organism-based
# Cytochrome P450 2D6 = Cytochrome P450 2D6 (Homo sapiens, UniProt P10635); test: Inhibition of CYP2D6 in human liver microsomes by LC-MS/MS analysis; format: ADME
# Chain of Cytochrome P450 2D6 (P10635 whole entry): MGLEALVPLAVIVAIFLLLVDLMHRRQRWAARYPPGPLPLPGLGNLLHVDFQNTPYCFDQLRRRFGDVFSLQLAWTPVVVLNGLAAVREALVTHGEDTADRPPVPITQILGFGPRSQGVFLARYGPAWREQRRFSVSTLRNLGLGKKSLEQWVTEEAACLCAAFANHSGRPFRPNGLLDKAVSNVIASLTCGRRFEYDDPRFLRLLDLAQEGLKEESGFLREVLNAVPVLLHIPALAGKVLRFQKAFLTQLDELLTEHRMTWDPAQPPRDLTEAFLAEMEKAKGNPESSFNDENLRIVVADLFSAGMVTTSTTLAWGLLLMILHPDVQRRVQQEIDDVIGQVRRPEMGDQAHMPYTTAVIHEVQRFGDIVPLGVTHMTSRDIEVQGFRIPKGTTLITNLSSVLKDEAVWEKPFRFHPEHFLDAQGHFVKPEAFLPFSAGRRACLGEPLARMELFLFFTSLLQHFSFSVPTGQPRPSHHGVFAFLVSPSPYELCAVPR
# [9] = Total clearance in CD(SD) rat at 0.3 mg/kg, iv; format: ADME, organism-based; settings: in vivo
# Egl nine homolog 1 = Egl nine homolog 1 (Homo sapiens, UniProt Q9GZT9); test: Inhibition of PHD2 in human Hep3B cells assessed as increase in EPO release after 24 hrs by ELISA; format: cell-based
# Chain of Egl nine homolog 1 (Q9GZT9 whole entry): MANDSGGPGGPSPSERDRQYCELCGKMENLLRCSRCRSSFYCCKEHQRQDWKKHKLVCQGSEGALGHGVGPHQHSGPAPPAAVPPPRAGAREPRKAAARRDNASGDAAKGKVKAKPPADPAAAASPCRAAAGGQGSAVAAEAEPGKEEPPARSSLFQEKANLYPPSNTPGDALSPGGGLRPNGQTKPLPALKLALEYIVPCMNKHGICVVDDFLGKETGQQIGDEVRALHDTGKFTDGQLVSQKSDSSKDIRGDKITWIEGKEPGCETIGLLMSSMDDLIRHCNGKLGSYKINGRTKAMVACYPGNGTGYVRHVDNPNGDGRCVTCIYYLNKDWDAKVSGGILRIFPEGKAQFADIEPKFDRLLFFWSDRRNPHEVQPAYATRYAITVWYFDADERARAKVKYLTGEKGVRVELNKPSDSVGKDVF
# Cytochrome P450 2C9 = Cytochrome P450 2C9 (Homo sapiens, UniProt P11712); test: Inhibition of CYP2C9 in human liver microsomes by LC-MS/MS analysis; format: ADME
# Chain of Cytochrome P450 2C9 (P11712 whole entry): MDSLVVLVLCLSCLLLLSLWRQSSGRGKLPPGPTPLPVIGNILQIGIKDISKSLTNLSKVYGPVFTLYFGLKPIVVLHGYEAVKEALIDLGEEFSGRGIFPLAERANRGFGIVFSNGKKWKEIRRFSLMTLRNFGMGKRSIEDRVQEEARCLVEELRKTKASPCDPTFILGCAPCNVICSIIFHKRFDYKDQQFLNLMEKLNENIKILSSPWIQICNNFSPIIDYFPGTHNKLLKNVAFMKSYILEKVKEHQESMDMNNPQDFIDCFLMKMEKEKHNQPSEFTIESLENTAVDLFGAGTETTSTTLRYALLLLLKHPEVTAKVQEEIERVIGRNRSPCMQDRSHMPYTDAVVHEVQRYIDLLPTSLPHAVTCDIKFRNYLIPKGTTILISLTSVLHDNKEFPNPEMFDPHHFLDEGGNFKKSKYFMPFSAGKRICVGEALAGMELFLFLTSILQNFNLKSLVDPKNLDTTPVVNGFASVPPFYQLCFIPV
# [10] = Half life in CD(SD) rat at 0.3 mg/kg, iv; format: ADME, organism-based; settings: in vivo
# Rattus norvegicus [11] = test: Upregulation of plasma EPO level in CD(SD) rat at 10 mg/kg, po administered as single dose measured after 8 hrs by RIA; format: functional
# Cytochrome P450 2B6 = molecular target: T4, Cytochrome P450 2B6 (Homo sapiens, UniProt P20813); test: Inhibition of CYP2B6 in human liver microsomes by LC-MS/MS analysis; format: ADME
# T4 sequence (P20813 whole entry): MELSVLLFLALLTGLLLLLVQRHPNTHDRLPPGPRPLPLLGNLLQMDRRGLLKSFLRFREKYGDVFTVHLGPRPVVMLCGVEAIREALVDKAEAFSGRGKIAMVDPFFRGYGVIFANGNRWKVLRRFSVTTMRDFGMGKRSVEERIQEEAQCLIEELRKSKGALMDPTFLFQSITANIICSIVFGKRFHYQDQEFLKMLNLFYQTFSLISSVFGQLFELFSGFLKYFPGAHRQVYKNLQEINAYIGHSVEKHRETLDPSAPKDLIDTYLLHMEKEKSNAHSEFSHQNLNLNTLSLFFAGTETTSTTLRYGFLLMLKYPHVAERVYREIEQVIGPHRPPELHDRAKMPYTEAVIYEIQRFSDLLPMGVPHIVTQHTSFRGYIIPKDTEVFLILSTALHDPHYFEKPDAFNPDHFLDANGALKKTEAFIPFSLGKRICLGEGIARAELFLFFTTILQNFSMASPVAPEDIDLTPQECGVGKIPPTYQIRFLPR
# [12] = Metabolic stability in human pooled liver microsomes assessed as compound remaining at 10 uM after 120 mins in presence of NADPH by Radio-HPLC analysis; format: ADME, microsome; settings: read-out: Stability
# [13] = Oral bioavailability in CD(SD) rat at 1 mg/kg; format: ADME, organism-based; settings: in vivo
# [14] = Tmax in CD(SD) rat at 1 mg/kg, po; format: ADME, organism-based; settings: in vivo
# Cytochrome P450 3A5 = Cytochrome P450 3A5 (Homo sapiens, UniProt P20815); test: Inhibition of CYP3A5 in human liver microsomes using midazolam as substrate by LC-MS/MS analysis; format: ADME
# Chain of Cytochrome P450 3A5 (P20815 whole entry): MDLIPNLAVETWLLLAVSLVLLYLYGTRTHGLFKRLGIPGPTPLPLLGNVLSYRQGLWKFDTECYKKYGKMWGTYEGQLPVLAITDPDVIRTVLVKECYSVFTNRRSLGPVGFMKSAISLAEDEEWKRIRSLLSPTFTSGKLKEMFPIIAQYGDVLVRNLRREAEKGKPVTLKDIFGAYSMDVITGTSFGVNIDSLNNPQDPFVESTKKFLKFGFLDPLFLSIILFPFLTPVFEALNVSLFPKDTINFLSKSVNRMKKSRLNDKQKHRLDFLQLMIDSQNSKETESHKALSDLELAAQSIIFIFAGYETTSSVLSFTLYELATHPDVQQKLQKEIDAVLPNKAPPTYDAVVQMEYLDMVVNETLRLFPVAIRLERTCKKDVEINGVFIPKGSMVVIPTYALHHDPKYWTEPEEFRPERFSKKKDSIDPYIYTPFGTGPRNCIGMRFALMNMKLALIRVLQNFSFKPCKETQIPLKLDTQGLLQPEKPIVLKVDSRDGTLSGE
# Rattus norvegicus [15] = test: Toxicity in CD(SD) rat assessed as induction of anorexia at 100 mg/kg, po administered as single dose; format: organism-based; settings: in vivo
# [16] = Volume of distribution at steady state in CD(SD) rat at 0.3 mg/kg, iv; format: ADME, organism-based; settings: in vivo, read-out: Vdss
# [17] = molecular target: Voltage-gated inwardly rectifying potassium channel KCNH2 (Homo sapiens, UniProt Q12809); test: Inhibition of human ERG expressed in HEK293 cells at holding potential of -80 mV by whole cell patch clamp method; format: cell-based
# Chain of Voltage-gated inwardly rectifying potassium channel KCNH2 (Q12809 whole entry): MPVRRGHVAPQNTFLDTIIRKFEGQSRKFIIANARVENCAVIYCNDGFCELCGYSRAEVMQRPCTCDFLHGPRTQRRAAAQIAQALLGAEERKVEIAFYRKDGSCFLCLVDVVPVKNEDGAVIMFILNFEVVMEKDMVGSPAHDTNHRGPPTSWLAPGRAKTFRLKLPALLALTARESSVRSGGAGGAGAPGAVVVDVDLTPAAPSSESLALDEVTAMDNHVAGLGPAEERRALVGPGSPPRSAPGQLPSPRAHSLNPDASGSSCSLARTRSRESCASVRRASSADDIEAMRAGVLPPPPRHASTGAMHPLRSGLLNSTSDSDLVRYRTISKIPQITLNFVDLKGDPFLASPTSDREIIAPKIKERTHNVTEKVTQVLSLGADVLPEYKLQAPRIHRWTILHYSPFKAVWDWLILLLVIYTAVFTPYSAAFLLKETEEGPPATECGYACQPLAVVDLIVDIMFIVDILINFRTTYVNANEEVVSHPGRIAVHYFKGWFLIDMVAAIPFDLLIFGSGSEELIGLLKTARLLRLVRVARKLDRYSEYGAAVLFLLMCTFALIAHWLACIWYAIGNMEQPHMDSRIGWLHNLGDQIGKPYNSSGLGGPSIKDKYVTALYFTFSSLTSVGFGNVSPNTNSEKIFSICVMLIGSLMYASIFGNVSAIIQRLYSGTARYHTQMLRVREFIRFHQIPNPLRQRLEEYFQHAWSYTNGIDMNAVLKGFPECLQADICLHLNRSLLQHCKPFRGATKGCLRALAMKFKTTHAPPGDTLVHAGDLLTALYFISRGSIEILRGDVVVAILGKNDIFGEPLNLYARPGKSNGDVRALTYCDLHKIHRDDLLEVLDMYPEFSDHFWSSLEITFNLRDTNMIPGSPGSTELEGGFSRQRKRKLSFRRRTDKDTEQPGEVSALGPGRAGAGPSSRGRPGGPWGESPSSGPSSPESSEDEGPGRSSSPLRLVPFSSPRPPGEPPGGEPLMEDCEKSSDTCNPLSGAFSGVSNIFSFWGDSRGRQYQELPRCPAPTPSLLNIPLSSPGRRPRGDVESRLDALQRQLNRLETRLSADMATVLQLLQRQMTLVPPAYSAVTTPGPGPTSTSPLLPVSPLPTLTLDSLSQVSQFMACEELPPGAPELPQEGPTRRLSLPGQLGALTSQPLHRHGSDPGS
compound,measurement,setting,value
O=C(O)CNC(=O)c1c(O)cc(-c2cccc(Cl)c2)c2ncnn12,"Papp A→B at 2 h, 25 µM",in vitro,15 ×10⁻⁶ cm/s
same,Activity,Mus musculus,<265 pg/mL
Cl.O=C(O)CNC(=O)c1c(O)cc(CCc2ccccc2)n2ncnc12,"remaining at 2 h, 10 µM",[1],100%
same,solubility at 4 h,[2],1300 µM
same,MRT,[3],1.8 h
same,"remaining at 2 h, 10 µM",[4],94%
same,IC50,Cytochrome P450 2A6,> 100 µM
same,IC50,Cytochrome P450 3A4,> 100 µM
same,Cmax,[5],2700 ng/mL
same,"remaining at 2 h, 10 µM",[6],98%
same,IC50,Cytochrome P450 1A2,> 100 µM
same,IC50,Cytochrome P450 2C19,> 100 µM
same,IC50,Cytochrome P450 2C8,> 100 µM
same,solubility at 4 h,[7],> 2900 µM
same,Activity,Rattus norvegicus [8],Dose-dependent effect
same,IC50,Cytochrome P450 2D6,> 100 µM
same,clearance,[9],2.7 mL/min/kg
same,EC50,Egl nine homolog 1,5.7 µM
same,IC50,Cytochrome P450 2C9,> 100 µM
same,half-life,[10],1.4 h
same,Activity,Rattus norvegicus [11],17000 pg/mL
same,IC50,Cytochrome P450 2B6,> 100 µM
same,"Papp A→B at 2 h, 25 µM",in vitro,13 ×10⁻⁶ cm/s
same,"remaining at 2 h, 10 µM",[12],94%
same,bioavailability,[13],75%
same,Tmax,[14],0.33 h
same,IC50,Cytochrome P450 3A5,> 100 µM
same,Activity,Rattus norvegicus [15],Non-Toxic
same,Vd,[16],0.28 L/kg
same,IC50,[17],> 100 µM
same,Activity,Mus musculus,6500 pg/mL
Cl.O=C(O)CNC(=O)c1c(O)cc(-c2ccccc2)c2ncnn12,"Papp A→B at 2 h, 25 µM",in vitro,6.5 ×10⁻⁶ cm/s
same,Activity,Mus musculus,<260 pg/mL
Cl.O=C(O)CNC(=O)c1c(O)ccn2ncnc12,"Papp A→B at 2 h, 25 µM",in vitro,0.86 to 0.9 ×10⁻⁶ cm/s
Cl.O=C(O)CNC(=O)c1c(O)cc(C2CCCCC2)c2ncnn12,"Papp A→B at 2 h, 25 µM",in vitro,18 ×10⁻⁶ cm/s
same,Activity,Mus musculus,<450 pg/mL
Cl.O=C(O)CNC(=O)c1c(O)cc(CCc2ccc(F)cc2)n2ncnc12,"Papp A→B at 2 h, 25 µM",in vitro,12 ×10⁻⁶ cm/s
same,Activity,Mus musculus,1000 pg/mL
Cl.O=C(O)CNC(=O)c1c(O)cc(C2CCCCC2)n2ncnc12,"Papp A→B at 2 h, 25 µM",in vitro,21 ×10⁻⁶ cm/s
same,Activity,Mus musculus,540 pg/mL
Cc1nc2c(C(=O)NCC(=O)O)c(O)cc(CCc3ccccc3)n2n1.Cl,"Papp A→B at 2 h, 25 µM",in vitro,8.9 ×10⁻⁶ cm/s
same,Activity,Mus musculus,<260 pg/mL
Cl.O=C(O)CNC(=O)c1c(O)cc(-c2ccccc2)n2ncnc12,"Papp A→B at 2 h, 25 µM",in vitro,2.5 ×10⁻⁶ cm/s
same,Activity,Mus musculus,<320 pg/mL
CCCCCc1cn2ncnc2c(C(=O)NCC(=O)O)c1O.Cl,"Papp A→B at 2 h, 25 µM",in vitro,15 ×10⁻⁶ cm/s
same,Activity,Mus musculus,<330 pg/mL

# Source: ChEMBL document CHEMBL4138259, “Discovery of JTZ-951: A HIF Prolyl Hydroxylase Inhibitor for the Treatment of Renal Anemia” (ACS Med Chem Lett, 2017)
